Source: patent US20070128217A1 (priority 2003, published 2007)

Assays:
[1] = test system: control sera (pooled serum of ten healthy LUMC hospital workers; commercial negative donor pooled serum from the Dutch bloodbank); format: binding, human; design: Binding of Control serum LUMC to linear peptides / Binding of Control serum Blood-bank to linear peptides / Binding of Control serum LUMC to looped peptides / Binding of Control Serum Blood-Bank to Looped peptides / Binding of Control serum LUMC to linear peptides of the protein M of SARS-CoV Urbani / Binding of Control serum Blood-bank to linear peptides of the protein M of SARS-CoV Urbani / Binding of Control serum LUMC to looped peptides of the protein M of SARS-CoV Urbani / Binding of Control Serum Blood-Bank to Looped peptides of the protein M of SARS-CoV Urbani: unit not given here
[2] = test system: antibodies in sera from SARS patients (sera 1a, 1b, 2, 6, 37, 62, London, SARS-yellow, SARS-green); format: binding, human; design: Binding of serum 6 to linear peptides of protein X1 of SARS-CoV Urbani / Binding of serum 37 to linear peptides of protein X1 of SARS-CoV Urbani / Binding of serum 6 to looped/cyclic peptide (PEPSCAN-ELISA) / Binding of serum 37 to looped/cyclic peptide (PEPSCAN-ELISA) / Binding of serum 37 to looped/cyclic peptides of protein X1 of SARS-CoV Urbani / Binding of serum 6 to linear peptides of protein X2 / Binding of serum 37 to linear peptides of protein X2 / Binding of serum 37 to looped/cyclic peptides of protein X2 of SARS-CoV Urbani / Binding of serum 6 to linear peptides of protein M of SARS-CoV Urbani / Binding of serum 37 to linear peptides of protein M of SARS-CoV Urbani / Binding of serum 6 to looped/cyclic peptides of protein M of SARS-CoV Urbani / Binding of serum 37 to looped/cyclic peptides of protein M of SARS-CoV Urbani / Binding of serum 6 to linear peptides of protein X3 of SARS-CoV Urbani / Binding of serum 37 to linear peptides of protein X3 of SARS-CoV Urbani / Binding of serum 37 to looped/cyclic peptides of protein X3 of SARS-CoV Urbani / Binding of serum 6 to linear peptides of protein X4 of SARS-CoV Urbani / Binding of serum 37 to linear peptides of protein X4 of SARS-CoV Urbani / Binding of serum 37 to looped/cyclic peptides of protein X4 of SARS-CoV Urbani / Binding of serum 6 to linear peptides of protein X5 of SARS-CoV Urbani / Binding of serum 37 to linear peptides of protein X5 of SARS-CoV Urbani / Binding of serum 37 to looped/cyclic peptides of protein X5 of SARS-CoV Urbani / Binding of serum 6 to linear peptides of protein N of SARS-CoV Urbani / Binding of serum 37 to linear peptides of protein N of SARS-CoV Urbani / Binding of serum 6 to linear peptide (PEPSCAN-ELISA) / Binding of serum 1a to looped/cyclic peptides of protein N of SARS-CoV Urbani / Binding of serum 1b to looped/cyclic peptides of protein N of SARS-CoV Urbani / Binding of serum 2 to looped/cyclic peptides of protein N of SARS-CoV Urbani / Binding of serum 6 to looped/cyclic peptides of protein N of SARS-CoV Urbani / Binding of serum 37 to looped/cyclic peptides of protein N of SARS-CoV Urbani / Binding of serum 62 to looped/cyclic peptides of protein N of SARS-CoV Urbani / Binding of serum London to looped/cyclic peptides of protein N of SARS-CoV Urbani / Binding of serum SARS-green to looped/cyclic peptides of protein N of SARS-CoV Urbani: unit not given here
[3] = test system: recombinant human anti-SARS-CoV antibody 03-018; format: binding; design: Binding of antibody 03-018 to linear peptides of the N protein of SARS-CoV Urbani / Binding of antibody 03-018 to looped/cyclic peptides of the N protein of SARS-CoV Urbani: unit not given here
[4] = test system: rabbit serum obtained by immunizing a rabbit with the SARS-CoV strain Frankfurt 1; format: binding; design: Binding of a rabbit serum to linear peptides / Binding of a rabbit serum to looped peptides / Rabbit serum linear peptides / Rabbit serum looped peptides / Binding of a rabbit serum to linear peptides of protein N of SARS-CoV Urbani (Rabbit serum linear peptides) / Binding of a rabbit serum to looped/cyclic peptides of protein N of SARS-CoV Urbani (Rabbit serum looped peptides): unit not given here

| Sequence | Binding of Control Serum Blood-Bank to Looped peptides [1] | Binding of Control serum Blood-bank to linear peptides [1] | Binding of Control serum LUMC to linear peptides [1] | Binding of Control serum LUMC to looped peptides [1] | Binding of serum 1a to linear peptide (PEPSCAN-ELISA) [2] | Binding of serum 1a to looped/cyclic peptides of protein N of SARS-CoV Urbani [2] | Binding of serum 1b to linear peptide (PEPSCAN-ELISA) [2] | Binding of serum 1b to looped/cyclic peptides of protein N of SARS-CoV Urbani [2] | Binding of serum 2 to linear peptide (PEPSCAN-ELISA) [2] | Binding of serum 2 to looped/cyclic peptides of protein N of SARS-CoV Urbani [2] | Binding of serum 6 to linear peptide (PEPSCAN-ELISA) [2] | Binding of serum 6 to looped/cyclic peptides of protein N of SARS-CoV Urbani [2] | Binding of serum 37 to linear peptide (PEPSCAN-ELISA) [2] | Binding of serum 37 to looped/cyclic peptides of protein N of SARS-CoV Urbani [2] | Binding of serum 62 to linear peptide (PEPSCAN-ELISA) [2] | Binding of serum 62 to looped/cyclic peptides of protein N of SARS-CoV Urbani [2] | Binding of antibody 03-018 to linear peptides of the N protein of SARS-CoV Urbani [3] | Binding of antibody 03-018 to looped/cyclic peptides of the N protein of SARS-CoV Urbani [3] | Binding of a rabbit serum to linear peptides of protein N of SARS-CoV Urbani (Rabbit serum linear peptides) [4] | Binding of a rabbit serum to looped/cyclic peptides of protein N of SARS-CoV Urbani (Rabbit serum looped peptides) [4] | further results |
| --- | --- | --- | --- | --- | --- | --- | --- | --- | --- | --- | --- | --- | --- | --- | --- | --- | --- | --- | --- | --- | --- |
| QLESKVSGKGQQQQG | 1.0 | 0.8 | 0.8 | 0.9 | 0.3 | 0.5 | 0.1 | 0.4 | 0.3 | 0.7 | 0.2 | 0.5 | 0.7 | 0.6 | 0.8 | 0.7 | 0.1 | 0.3 | 0.1 | 0.4 | Binding of serum London to linear peptide (PEPSCAN-ELISA) [2]: 0.6; Binding of serum London to looped/cyclic peptides of protein N of SARS-CoV Urbani [2]: 0.7; Binding of serum SARS-green to linear peptide (PEPSCAN-ELISA) [2]: 0.5; Binding of serum SARS-green to looped/cyclic peptides of protein N of SARS-CoV Urbani [2]: 0.7; Binding of serum SARS-yellow to linear peptide (PEPSCAN-ELISA) [2]: 0.8; Binding of serum SARS-yellow to looped/cyclic peptides of protein N of SARS-CoV Urbani [2]: 1.1 |
| QPLPQRQKKQPTVTL | – | – | – | – | – | – | – | – | – | – | – | – | – | – | – | – | 0.1 | 0.3 | 0.1 | 0.7 | Control Serum Blood-Bank Looped peptides [1]: 1.0; Control serum Blood-bank linear peptides [1]: 0.6; Control serum LUMC linear peptides [1]: 0.5; Control serum LUMC looped peptides [1]: 0.9; Binding of serum 1a to linear peptides of protein N of SARS-CoV Urbani [2]: 0.2; Binding of serum 1b to linear peptides of protein N of SARS-CoV Urbani [2]: 0.2; Binding of serum 2 to linear peptides of protein N of SARS-CoV Urbani [2]: 0.3; Binding of serum 6 to linear peptides of protein N of SARS-CoV Urbani [2]: 0.4; Binding of serum 37 to linear peptides of protein N of SARS-CoV Urbani [2]: 0.6; Binding of serum 62 to linear peptides of protein N of SARS-CoV Urbani [2]: 0.6; Binding of serum London to linear peptides of protein N of SARS-CoV Urbani [2]: 1.3; Binding of serum SARS-green to linear peptides of protein N of SARS-CoV Urbani [2]: 0.2; Binding of serum SARS-yellow to linear peptides of protein N of SARS-CoV Urbani [2]: 1.3; Recognition of the peptide by sera of SARS-CoV infected individuals, and form (linear, looped/cyclic) in which it is recognized [2]: recognized in looped/cyclic form |
| QQQGQTVTKKSAAEA | 0.6 | 0.6 | 0.5 | 0.6 | 0.6 | 0.5 | 0.2 | 0.3 | 0.5 | 0.7 | 0.2 | 0.5 | 0.5 | 0.6 | 0.5 | 0.7 | 0.1 | 0.2 | 0.0 | 0.0 | Binding of serum London to linear peptide (PEPSCAN-ELISA) [2]: 0.6; Binding of serum London to looped/cyclic peptides of protein N of SARS-CoV Urbani [2]: 0.6; Binding of serum SARS-green to linear peptide (PEPSCAN-ELISA) [2]: 0.3; Binding of serum SARS-green to looped/cyclic peptides of protein N of SARS-CoV Urbani [2]: 0.9; Binding of serum SARS-yellow to linear peptide (PEPSCAN-ELISA) [2]: 0.6; Binding of serum SARS-yellow to looped/cyclic peptides of protein N of SARS-CoV Urbani [2]: 0.6 |
| QQQQGQTVTKKSAAE | 0.2 | 0.6 | 0.6 | 0.2 | 0.8 | 0.3 | 0.3 | 0.1 | 0.7 | 0.3 | 0.2 | 0.1 | 0.7 | 0.3 | 0.7 | 0.2 | 0.1 | 0.2 | 0.3 | 0.0 | Binding of serum London to linear peptide (PEPSCAN-ELISA) [2]: 0.7; Binding of serum London to looped/cyclic peptides of protein N of SARS-CoV Urbani [2]: 0.2; Binding of serum SARS-green to linear peptide (PEPSCAN-ELISA) [2]: 0.3; Binding of serum SARS-green to looped/cyclic peptides of protein N of SARS-CoV Urbani [2]: 0.0; Binding of serum SARS-yellow to linear peptide (PEPSCAN-ELISA) [2]: 0.9; Binding of serum SARS-yellow to looped/cyclic peptides of protein N of SARS-CoV Urbani [2]: 0.1 |
